Structures can show the parent of a compound that is named as a salt. Where two headings read alike, the source gives them in different places.
Legend:
YAP/TAZ = YAP/TAZ nuclear localization (immunofluorescence, automated imaging) in IPF patient-derived lung fibroblasts; assay type: cell-based, human; settings: 10 μM, treated 2 hours prior to fixation; for Nuclear localization (% of total cells) IPF-1: patient sample IPF-1; for Nuclear localization (% of total cells) IPF-2: patient sample IPF-2; for Nuclear localization (% of total cells) IPF-3: patient sample IPF-3; for Nuclear localization (% of total cells) IPF-4: patient sample IPF-4
Experimental: 27A. […] IPF patient-derived lung fibroblasts cells treated 2 hours prior to fixation with diverse dopaminergic agonists (10 μM). N=4 different patient samples. % nuclear localization of YAP/TAZ was determined using automated imaging software. Scale bar represents 100 μm. 27C. cAMP measured in IPF patient-derived fibroblasts treated for 20 minutes with DHX. N=3. 27E.
(§1) ImmunofluorescenceMicroscopy: Cells were plated into 96 well plates (Corning 3603) in their specific growth media and allowed to attach (8 hours). Media was then exchanged for the indicated conditions for each experiment. Cells were fixed in 3.7% formalin (Sigma-Aldrich), permeabilized in 0.25% Triton X-100 (Sigma-Aldrich) and then blocked with 1% BSA for 1 h. Cells or tissue sections were incubated overnight with mouse monoclonal antibody against αSMA (Sigma-Aldrich F3777), and/or a rabbit monoclonal antibody against YAP/TAZ (Cell Signaling D24E4) diluted 1:200 in PBS with 1% BSA. Cells were then washed and exposed to flourescence-conjugated secondary antibodies (Invitrogen) diluted 1:1000 and DAPI (Thermo Fisher Scientific). Images were taken with a Cytation5 (BioTek) microscope. For scoring αSMA positive cells (FIG. 3b), an observer blinded to the treatment conditions counted αSMA-positive cells using a visual threshold for bright fibrous staining; a minimum of 200 cells was counted for each condition. YAP/TAZ localization was quantified (FIG. 2, 6, 8) using Gen5 (Biotek) software. Images were taken at 4× magnification of both DAPI and YAP/TAZ staining. […] Quantification of double positive (YAP/TAZ and αSMA) cells from lung tissue sections (FIG. 4d) was performed similarly; however separate thresholds were established for both YAP/TAZ and αSMA. A minimum of 4000 cells was quantified for each mouse.

αSMA = αSMA intensity (fibroblast activation) in IPF patient-derived lung fibroblasts + TGFβ; assay type: cell-based, human; settings: 1 μM + TGFβ, treated for 72 hours; for activity at 1 µM: Homo sapiens, SMA
Experimental: as §1

[1] = patient sample IPF-1, read-out: αSMA intensity (% of DMSO control) IPF-1
[2] = patient sample IPF-2, read-out: αSMA intensity (% of DMSO control) IPF-2
[3] = patient sample IPF-3, read-out: αSMA intensity (% of DMSO control) IPF-3
[4] = patient sample IPF-4, read-out: αSMA intensity (% of DMSO control) IPF-4

Molecule | Nuclear localization (% of total cells) IPF-1 (YAP/TAZ) | Nuclear localization (% of total cells) IPF-2 (YAP/TAZ) | Nuclear localization (% of total cells) IPF-3 (YAP/TAZ) | Nuclear localization (% of total cells) IPF-4 (YAP/TAZ) | αSMA intensity (% of DMSO control) IPF-1 (αSMA; patient sample IPF-1) | αSMA intensity (% of DMSO control) IPF-2 (αSMA; patient sample IPF-2) | αSMA intensity (% of DMSO control) IPF-3 (αSMA; patient sample IPF-3) | αSMA intensity (% of DMSO control) IPF-4 (αSMA; patient sample IPF-4) | activity at 1 µM (αSMA; [1]) [%] | activity at 1 µM (αSMA; [2]) [%] | activity at 1 µM (αSMA; [3]) [%] | activity at 1 µM (αSMA; [4]) [%]
COc1ccc2c(c1O)-c1cc(O)cc3c1[C@@H](C2)N(C)CC3.Cl [R(−)-2,11-dihydroxy-10-methoxyapomorphine] | 85.18 % of total cells | 74.67 % of total cells | 80.73 % of total cells | 80.45 % of total cells | 91.84 % of DMSO control | 92.8 % of DMSO control | 81.85 % of DMSO control | 85.61 % of DMSO control | – | – | – | –
NCCc1ccc(O)cc1 [4-Hydroxyphenethylamine•HCl, 4-Hydroxyphenethylamine] | – | – | – | – | – | – | – | – | 99.7 | 93.4 | 95.7 | 88.3
C=CCN1C[C@H](C(=O)N(CCCN(C)C)C(=O)NCC)C[C@@H]2c3cccc4[nH]cc(c34)C[C@H]21 [Cabergoline] | – | – | – | – | – | – | – | – | 76.9 | 48.1 | 77.1 | 45.8
R(−)-2,10,11-Trihydroxyaporphine [R(−)-2,10,11-Trihydroxyaporphine•HBr] | 13.71 % of total cells | 22.15 % of total cells | 24.15 % of total cells | 17.75 % of total cells | 2.888 % of DMSO control | 1.698 % of DMSO control | 7.646 % of DMSO control | 15.9942 % of DMSO control | – | – | – | –
CCCN(CCC)[C@@H]1CCc2c(OC)cccc2[C@@H]1C.O=C(O)/C=C\C(=O)O [(+)-UH 232 maleate] | 61.9521 % of total cells | 68 % of total cells | 71.85 % of total cells | 67.27 % of total cells | 82.91 % of DMSO control | 63.85 % of DMSO control | 85.81 % of DMSO control | 65.71 % of DMSO control | – | – | – | –
NC[C@@H]1O[C@H](C23CC4CC(CC(C4)C2)C3)Cc2c1ccc(O)c2O [A-77636•HCl•H2O] | 26.46 % of total cells | 30.88 % of total cells | 41.33 % of total cells | 37.79 % of total cells | – | – | – | – | 5.81 | 0.719 | 0.0677 | 12.4
Oc1cc2c(cc1O)[C@@H](c1ccccc1)CNCC2 [SKF 38393•HBr] | – | – | – | – | – | – | – | – | 37.1 | 26.8 | 31.2 | 20.8
R(−)-Propylnorapomorphine [R(−)-Propylnorapomorphine•HCl] | 28.35 % of total cells | 26.71 % of total cells | 42.74 % of total cells | 29.03 % of total cells | 5.081 % of DMSO control | 1.879 % of DMSO control | 5.561 % of DMSO control | 19.96 % of DMSO control | – | – | – | –
Cc1cccc(C(=O)NCN2CCN(c3ccccc3C#N)CC2)c1.O=C(O)/C=C\C(=O)O [PD 168077 maleate] | 67.08 % of total cells | 42.44 % of total cells | 63.68 % of total cells | 68.4 % of total cells | 75.27 % of DMSO control | 56.15 % of DMSO control | 75.77 % of DMSO control | 66.5 % of DMSO control | – | – | – | –
CCCN1C[C@H](CSC)C[C@@H]2c3cccc4[nH]cc(c34)C[C@H]21 [Pergolide mesylate, Pergolide] | – | – | – | – | – | – | – | – | 65 | 51.6 | 63.6 | 48.1
CCCN(CCC)CCc1cccc2c1CC(=O)N2 [Ropinirole HCl, Ropinirole] | – | – | – | – | – | – | – | – | 72.2 | 53.5 | – | 62
CCCN1CCC[C@@H]2Cc3nc(N)ncc3C[C@H]21.Cl.Cl [LY-163,502•2HCl] | 73.37 % of total cells | 60.97 % of total cells | 59.43 % of total cells | 66.49 % of total cells | 88.99 % of DMSO control | 72.86 % of DMSO control | 75.3 % of DMSO control | 86.7894 % of DMSO control | – | – | – | –
Br.NC1CCc2cc(O)c(O)cc2C1 (stereo not shown) [6,7-ADTN•HBr, 6,7-ADTN] | 43.89 % of total cells | 44 % of total cells | 65.5 % of total cells | 52.65 % of total cells | 37.14 % of DMSO control | 4.182 % of DMSO control | 9.909 % of DMSO control | 4.888 % of DMSO control | – | – | – | –
CCCN(CCc1ccccc1)C1CCc2c(O)cccc2C1.Cl (racemic) [(±)-2-(N-phenylethyl-N-propyl)amino-5-hydroxytetralin] | 68.85 % of total cells | 60.86 % of total cells | 68 % of total cells | 56.552 % of total cells | 65.43 % of DMSO control | 52.77 % of DMSO control | 60.4844 % of DMSO control | 51.1 % of DMSO control | – | – | – | –
C=CCN1CCc2c(cc(O)c(O)c2Cl)C(c2ccccc2)C1 (racemic) [(±)-SKF-82958•HBr] | 29.15 % of total cells | 38 % of total cells | 38 % of total cells | 12.29 % of total cells | – | – | – | – | 11.8 | 4.97 | 2.43 | 9.33
c1cnc(N2CCN(Cc3ccc4c(c3)OCO4)CC2)nc1 [Piribedil•2HCl, Piribedil] | – | – | – | – | – | – | – | – | 70.4 | 61.5 | 71.5 | 41.2
CN1C[C@@H](NS(=O)(=O)N(C)C)C[C@@H]2c3cccc4c3c(cn4C)C[C@H]21 [Mesulergine•HCl, Mesulergine] | – | – | – | – | – | – | – | – | 35.5 | 23.3 | 40 | 19.8
CC(C)C[C@H]1C(=O)N2CCC[C@H]2[C@]2(O)O[C@](NC(=O)[C@@H]3C=C4c5cccc6[nH]c(Br)c(c56)C[C@H]4N(C)C3)(C(C)C)C(=O)N12 [Bromocriptine mesylate, Bromocriptine] | – | – | – | – | – | – | – | – | 54.1 | 53.6 | 61.1 | 34.1
CCCN[C@H]1CCc2nc(N)sc2C1 [Pramipexole Dihydrochloride Monohydrate, Pramipexole] | – | – | – | – | – | – | – | – | 87.6 | 73.2 | 82.8 | 89.9

— patent US20240252463A1, “METHODS OF TREATING FIBROTIC PATHOLOGIES” (Mayo Foundation for Medical Education and Research, priority 2018, published 2024)
